Laboratory results as given in patent US10004701B2, “Methods and compositions for treating infection” (UNIVERSITY OF ROCHESTER, priority 2012, dated 2018).
Structures can show the parent of a compound that is named as a salt. Where two headings read alike, the source gives them in different places.

Columns and labels:
Assay in all cases: AK assay 384-well format, Prestwick library screening
[1] = system: A. baumannii strain 98-37-09; format: cell-based, Acinetobacter baumannii; settings: 50 μM final drug concentration; for fold induction at 50 µM: Acinetobacter baumannii, 983709, 3 h
[2] = system: E. cloacae; format: cell-based, Enterobacter cloacae; settings: 50 μM final drug concentration; for fold induction at 50 µM: Enterobacter cloacae, 3 h
[3] = system: E. coli; format: cell-based, Escherichia coli; settings: 50 μM final drug concentration; for fold induction at 50 µM: Escherichia coli, 3 h
[4] = system: S. aureus strain USA300-0114; format: cell-based, Staphylococcus aureus; settings: for fold induction at 50 µM: Staphylococcus aureus, USA300, 3 h
[5] = system: K. pneumoniae; format: cell-based, Klebsiella pneumoniae; settings: 50 μM final drug concentration; for fold induction at 50 µM: Klebsiella pneumoniae, 3 h
[6] = system: P. aeruginosa; format: cell-based, Pseudomonas aeruginosa; settings: 50 μM final drug concentration; for fold induction at 50 µM: Pseudomonas aeruginosa, 3 h
[7] = system: E. faecium; format: cell-based, Enterococcus faecium; settings: 50 μM final drug concentration; for fold induction at 50 µM: Enterococcus faecium, 3 h
[8] = planktonic A. baumannii, cutoff for positive-scoring molecules 3-fold increase, read-out: AK-based Prestwick Library Screening Results, A. baumannii (increase in extracellular AK activity)
[9] = planktonic E. cloacae, cutoff for positive-scoring molecules 3-fold increase, read-out: AK-based Prestwick Library Screening Results, E. cloacae (increase in extracellular AK activity)
[10] = planktonic E. coli, cutoff for positive-scoring molecules 3-fold increase, read-out: AK-based Prestwick Library Screening Results, E. coli (increase in extracellular AK activity)
[11] = planktonic S. aureus, 50 μM final drug concentration, cutoff for positive-scoring molecules 3-fold increase, read-out: AK-based Prestwick Library Screening Results, S. aureus (increase in extracellular AK activity)
[12] = planktonic K. pneumoniae, cutoff for positive-scoring molecules 3-fold increase, read-out: AK-based Prestwick Library Screening Results, K. pneumoniae (increase in extracellular AK activity)
[13] = planktonic P. aeruginosa, cutoff for positive-scoring molecules 3-fold increase, read-out: AK-based Prestwick Library Screening Results, P. aeruginosa (increase in extracellular AK activity)
[14] = planktonic E. faecium, cutoff for positive-scoring molecules 3-fold increase, read-out: AK-based Prestwick Library Screening Results, E. faecium (increase in extracellular AK activity)
[15] = cutoff for positive-scoring molecules 3-fold increase
[16] = cutoff for positive-scoring molecules 3-fold increase, read-out: AK-based Prestwick Library Screening Results, A. baumannii (fold increase in extracellular AK activity)
[17] = cutoff for positive-scoring molecules 3-fold increase, read-out: AK-based Prestwick Library Screening Results, E. cloacae (fold increase in extracellular AK activity)
[18] = cutoff for positive-scoring molecules 3-fold increase, read-out: AK-based Prestwick Library Screening Results, E. coli (fold increase in extracellular AK activity)
[19] = 50 μM final drug concentration, cutoff for positive-scoring molecules 3-fold increase, read-out: AK-based Prestwick Library Screening Results, S. aureus (fold increase in extracellular AK activity)
[20] = cutoff for positive-scoring molecules 3-fold increase, read-out: AK-based Prestwick Library Screening Results, K. pneumoniae (fold increase in extracellular AK activity)
[21] = cutoff for positive-scoring molecules 3-fold increase, read-out: AK-based Prestwick Library Screening Results, P. aeruginosa (fold increase in extracellular AK activity)
[22] = cutoff for positive-scoring molecules 3-fold increase, read-out: AK-based Prestwick Library Screening Results, E. faecium (fold increase in extracellular AK activity)

CC[C@H]1CN2CCc3cc(OC)c(OC)cc3[C@@H]2C[C@@H]1C[C@H]1NCCc2cc(OC)c(OC)cc21 [Emetine dihydrochloride]
fold induction at 50 µM [1, 8]: 0.5
fold induction at 50 µM [2, 9]: 0.5
fold induction at 50 µM [3, 10]: 0.5
fold induction at 50 µM [4, 11]: 0.5
fold induction at 50 µM [5, 12]: 0.6
fold induction at 50 µM [6, 13]: 0.5
fold induction at 50 µM [7, 14]: 0.9

COc1ccc2cc([C@@H](C)C(=O)[O-])ccc2c1.[Na+] [(R)-Naproxen sodium salt]
AK-based Prestwick Library Screening Results, A. baumannii (fold increase in extracellular AK activity) [1, 15]: 1.1
AK-based Prestwick Library Screening Results, E. cloacae (fold increase in extracellular AK activity) [2, 15]: 1.7
AK-based Prestwick Library Screening Results, E. coli (fold increase in extracellular AK activity) [3, 15]: 1.1
AK-based Prestwick Library Screening Results, S. aureus (fold increase in extracellular AK activity) ([4]; 50 μM final drug concentration, cutoff for positive-scoring molecules 3-fold increase): 1.0
AK-based Prestwick Library Screening Results, K. pneumoniae (fold increase in extracellular AK activity) [5, 15]: 1.0
AK-based Prestwick Library Screening Results, P. aeruginosa (fold increase in extracellular AK activity) [6, 15]: 1.0
AK-based Prestwick Library Screening Results, E. faecium (fold increase in extracellular AK activity) [7, 15]: 1.0

CC(C)/N=c1\cc2n(-c3ccc(Cl)cc3)c3ccccc3nc-2cc1Nc1ccc(Cl)cc1 [Clofazimine, clofazimine, reference compound]
fold induction at 50 µM ([1]; planktonic, cutoff for positive 3-fold increase, read-out: AK-based Prestwick Library Screening Results, A. baumannii (fold increase in extracellular AK activity)): 5
fold induction at 50 µM ([2]; planktonic, cutoff for positive 3-fold increase, read-out: AK-based Prestwick Library Screening Results, E. cloacae (fold increase in extracellular AK activity)): 1.8
fold induction at 50 µM ([3]; planktonic, cutoff for positive 3-fold increase, read-out: AK-based Prestwick Library Screening Results, E. coli (fold increase in extracellular AK activity)): 1.2
activity in AK Prestwick screen ([4]; S. aureus USA300-0114, 50 μM, cutoff 3-fold increase in AK): active
fold induction at 50 µM ([4]; 50 μM final drug concentration, planktonic, cutoff for positive 3-fold increase, read-out: AK-based Prestwick Library Screening Results, S. aureus (fold increase in extracellular AK activity)): 4.6
fold induction at 50 µM ([5]; planktonic, cutoff for positive 3-fold increase, read-out: AK-based Prestwick Library Screening Results, K. pneumoniae (fold increase in extracellular AK activity)): 1.1
fold induction at 50 µM ([6]; planktonic, cutoff for positive 3-fold increase, read-out: AK-based Prestwick Library Screening Results, P. aeruginosa (fold increase in extracellular AK activity)): 1
fold induction at 50 µM ([7]; planktonic, cutoff for positive 3-fold increase, read-out: AK-based Prestwick Library Screening Results, E. faecium (fold increase in extracellular AK activity)): 1

C[C@@H]1C(=O)O[C@H]2C[C@@]34[C@H]5C[C@@H](C(C)(C)C)[C@]36[C@@H](OC(=O)[C@@H]6O)O[C@@]4(C(=O)O5)[C@]21O [Ginkgolide A]
AK-based Prestwick Library Screening Results, A. baumannii (increase in extracellular AK activity) ([1]; planktonic A. baumannii): 1.0
AK-based Prestwick Library Screening Results, E. cloacae (increase in extracellular AK activity) ([2]; planktonic E. cloacae): 1.2
AK-based Prestwick Library Screening Results, E. coli (increase in extracellular AK activity) ([3]; planktonic E. coli): 1.3
AK-based Prestwick Library Screening Results, S. aureus (increase in extracellular AK activity) ([4]; planktonic S. aureus, 50 μM final drug concentration): 1.1
AK-based Prestwick Library Screening Results, K. pneumoniae (increase in extracellular AK activity) ([5]; planktonic K. pneumoniae): 1.0
AK-based Prestwick Library Screening Results, P. aeruginosa (increase in extracellular AK activity) ([6]; planktonic P. aeruginosa): 1.1
AK-based Prestwick Library Screening Results, E. faecium (increase in extracellular AK activity) ([7]; planktonic E. faecium): 1.0

Cc1onc(-c2c(F)cccc2Cl)c1C(=O)N[C@@H]1C(=O)N2[C@@H]1SC(C)(C)[C@@H]2C(=O)O [Flucloxacillin sodium]
fold induction at 50 µM ([1]; planktonic A. baumannii, positive cutoff 3-fold increase, read-out: AK-based Prestwick library screening result, A. baumannii (fold increase in extracellular AK activity)): 1.5
fold induction at 50 µM ([2]; planktonic E. cloacae, positive cutoff 3-fold increase, read-out: AK-based Prestwick library screening result, E. cloacae (fold increase in extracellular AK activity)): 1.3
fold induction at 50 µM ([3]; planktonic E. coli, positive cutoff 3-fold increase, read-out: AK-based Prestwick library screening result, E. coli (fold increase in extracellular AK activity)): 1.3
fold induction at 50 µM ([4]; planktonic S. aureus, 50 μM final drug concentration, positive cutoff 3-fold increase, read-out: AK-based Prestwick library screening result, S. aureus (fold increase in extracellular AK activity)): 6.1
fold induction at 50 µM ([5]; planktonic K. pneumoniae, positive cutoff 3-fold increase, read-out: AK-based Prestwick library screening result, K. pneumoniae (fold increase in extracellular AK activity)): 1.1
fold induction at 50 µM ([6]; planktonic P. aeruginosa, positive cutoff 3-fold increase, read-out: AK-based Prestwick library screening result, P. aeruginosa (fold increase in extracellular AK activity)): 1.2
fold induction at 50 µM ([7]; planktonic E. faecium, positive cutoff 3-fold increase, read-out: AK-based Prestwick library screening result, E. faecium (fold increase in extracellular AK activity)): 1

CCC(Cc1c(I)cc(I)c(N)c1I)C(=O)O (stereo not drawn) [Iopanoic acid]
fold induction at 50 µM [1, 16]: 0.6
fold induction at 50 µM [2, 17]: 9.6
fold induction at 50 µM [3, 18]: 0.6
fold induction at 50 µM [4, 19]: 0.4
fold induction at 50 µM [5, 20]: 0.6
fold induction at 50 µM [6, 21]: 0.6
fold induction at 50 µM [7, 22]: 0.9

Bromocryptine mesylate
AK-based Prestwick Library Screening Results, A. baumannii (increase in extracellular AK activity) ([1]; 384-well format): 1.4
AK-based Prestwick Library Screening Results, E. cloacae (increase in extracellular AK activity) ([2]; 384-well format): 1.4
AK-based Prestwick Library Screening Results, E. coli (increase in extracellular AK activity) ([3]; 384-well format): 1.3
AK-based Prestwick Library Screening Results, S. aureus (increase in extracellular AK activity) ([4]; 50 μM final drug concentration, 384-well format): 0.6
AK-based Prestwick Library Screening Results, K. pneumoniae (increase in extracellular AK activity) ([5]; 384-well format): 1.1
AK-based Prestwick Library Screening Results, P. aeruginosa (increase in extracellular AK activity) ([6]; 384-well format): 1.1
AK-based Prestwick Library Screening Results, E. faecium (increase in extracellular AK activity) ([7]; 384-well format): 0.9

CCN(CC)C(=O)c1ccc(O)c(OC)c1 [Ethamivan]
fold induction at 50 µM [1, 8]: 0.9
fold induction at 50 µM [2, 9]: 0.9
fold induction at 50 µM [3, 10]: 0.6
fold induction at 50 µM [4, 11]: 0.6
fold induction at 50 µM [5, 12]: 0.6
fold induction at 50 µM [6, 13]: 0.6
fold induction at 50 µM [7, 14]: 1

CC(=O)Nc1ccc(O)cc1 [Acetaminophen]
fold induction at 50 µM [1, 16]: 1.5
fold induction at 50 µM [2, 17]: 1.6
fold induction at 50 µM [3, 18]: 1.4
fold induction at 50 µM [4, 19]: 1.6
fold induction at 50 µM [5, 20]: 1.2
fold induction at 50 µM [6, 21]: 1.1
fold induction at 50 µM [7, 22]: 1

CC(=O)O[C@]1(C(C)=O)CC[C@H]2[C@@H]3C=C(C)C4=CC(=O)CC[C@]4(C)[C@H]3CC[C@@]21C [Megestrol acetate]
fold induction at 50 µM [1, 16]: 1.2
fold induction at 50 µM [2, 17]: 1.6
fold induction at 50 µM [3, 18]: 1.1
fold induction at 50 µM [4, 19]: 0.9
fold induction at 50 µM [5, 20]: 1
fold induction at 50 µM [6, 21]: 1.2
fold induction at 50 µM [7, 22]: 1.2

CCN(CC)C(=O)N1CCN(C)CC1 [Diethylcarbamazine citrate]
fold induction at 50 µM ([1]; planktonic A. baumannii, 384-well, cutoff for positive-scoring molecules 3-fold increase, read-out: AK-based Prestwick Library Screening Results: A. baumannii (increase in extracellular AK activity)): 1.1
fold induction at 50 µM ([2]; planktonic E. cloacae, 384-well, cutoff for positive-scoring molecules 3-fold increase, read-out: AK-based Prestwick Library Screening Results: E. cloacae (increase in extracellular AK activity)): 1.7
fold induction at 50 µM ([3]; planktonic E. coli, 384-well, cutoff for positive-scoring molecules 3-fold increase, read-out: AK-based Prestwick Library Screening Results: E. coli (increase in extracellular AK activity)): 1.3
fold induction at 50 µM ([4]; planktonic S. aureus, 50 μM final drug concentration, 384-well, cutoff for positive-scoring molecules 3-fold increase, read-out: AK-based Prestwick Library Screening Results: S. aureus (increase in extracellular AK activity)): 1.1
fold induction at 50 µM ([5]; planktonic K. pneumoniae, 384-well, cutoff for positive-scoring molecules 3-fold increase, read-out: AK-based Prestwick Library Screening Results: K. pneumoniae (increase in extracellular AK activity)): 0.9
fold induction at 50 µM ([6]; planktonic P. aeruginosa, 384-well, cutoff for positive-scoring molecules 3-fold increase, read-out: AK-based Prestwick Library Screening Results: P. aeruginosa (increase in extracellular AK activity)): 1.1
fold induction at 50 µM ([7]; planktonic E. faecium, 384-well, cutoff for positive-scoring molecules 3-fold increase, read-out: AK-based Prestwick Library Screening Results: E. faecium (increase in extracellular AK activity)): 1.2
